Experimental data from patent US20250154163A1, “Pyrimidinone-Containing 17-Beta-Hydroxysteroid Dehydrogenase Type 13 Inhibitors” (ENANTA PHARMACEUTICALS, INC., priority 2023, published 2025).

Legend:
[1] = biological target: T1, human HSD17β13 (stable HEK293T cell line overexpressing human HSD17β13) (Homo sapiens, UniProt Q7Z5P4); test: HSD17β13 inhibitor cell-based screening assay (conversion of estradiol-d2 to estrone-d2 by RF-MS); details: conversion of estradiol-d2 to estrone-d2 after 24 hours
T1 construct: expressed in transfected cells
T1 sequence (Q7Z5P4 20-300): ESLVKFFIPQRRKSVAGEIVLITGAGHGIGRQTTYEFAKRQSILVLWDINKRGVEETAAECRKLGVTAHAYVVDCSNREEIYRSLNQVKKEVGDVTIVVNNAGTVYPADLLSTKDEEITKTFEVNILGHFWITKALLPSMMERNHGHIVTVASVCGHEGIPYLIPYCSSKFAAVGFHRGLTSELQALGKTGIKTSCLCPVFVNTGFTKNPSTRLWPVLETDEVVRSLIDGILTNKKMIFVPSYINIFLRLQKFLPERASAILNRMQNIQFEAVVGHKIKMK
Summary of the method: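 Cellular IC50 is based on 24-h conversion of estradiol-d2 (5 μM final) to estrone-d2, measured by RF-MS in acetonitrile-precipitated supernatants. Assay uses human HSD17β13-overexpressing HEK293T cells (7.5E3/well, 1% charcoal/dextran FBS MEM), with compounds dosed as a 9-point 1:3 series to 10 μM final. ATPlite luminescence on overexpressing and parent lines measured viability.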

[2] = tested on: human precision cut lung slices from a normal donor treated with fibrotic cocktail; test: Human precision cut lung slice (PCLS) culture, normal donor treated with fibrotic cocktail; format: cell-based; details: normal donor PCLS treated 8 days with pro-fibrotic cocktail (FC); FIG. 2a, FIG. 3
Description: Human PCLS were generated from lung explants of patients with pulmonary fibrosis (donor ID #221028) or normal donor (donor ID #220730). Cryopreserved hPCLSs were obtained from Institute for In Vitro Sciences (IIVS) and maintained with air-liquid interface culture approach under 37° C., 5% CO2 and 95% humidity. hPCLS were cultured in DMEM-F12 (Invitrogen, Cat No. 11330032) containing 0.2% primocin (Invivogen, Cat No. ant-pm-1) and 1% insulin-transferrin-selenium (ITS-G; Invitrogen, Cat No. 41400045), after initial acclimation in acclimation media, including culture media supplemented with 1% antibiotic antimycotic solution (Invitrogen, Cat No. 15240062), 2 mM Hydrocortisone (Millipore Sigma,) and 5 mg/ml 2-phospho-L-abscorbic acid trisodium salt (Millipore Sigma, Cat No. 49752-10G) for 3 days. Slices of tissue were flatly grown in the tissue culture inserts with 0.4 μm pores of a 12-well plate (StemCell Technologies, Cat No. 1001027), supplemented with 100 μl culture media in the apical side containing PCLSs, and 900 μL culture media in the basal compartment. Media were changed every 48 hours. hPCLS were treated and randomly assigned in replicates of 6-8 per condition 7 days after recovery from cryopreservation. […] IPF donor PCLS were collected at day 8 for subsequent RNA isolation and gene expression quantification. […]

IC50 [1] [nM] | Structure (SMILES) | collagen (COL1A1) mRNA expression [2]
< 100 | COc1ccc(-c2nc3sc4c(O)c(Cl)ccc4c3c(=O)n2Cc2cnco2)c(C2CC2)c1 [Example 26, 7-chloro-2-(2-cyclopropyl-4-methoxyphenyl)-8-hydroxy-3-(oxazol-5-ylmethyl)benzo[4,5]thieno[2,3-d]pyrimidin-4(3H)-one] | decreased
< 100 | CS(=O)(=O)c1ccc(-c2nc3sc4c(O)c(Cl)ccc4c3c(=O)n2Cc2cnc(C(F)(F)F)nc2)c(C2CC2)c1 [Example 64, 7-chloro-2-(2-cyclopropyl-4-(methylsulfonyl)phenyl)-8-hydroxy-3-((2-(trifluoromethyl)pyrimidin-5-yl)methyl)benzo[4,5]thieno[2,3-d]pyrimidin-4(3H)-one] | decreased
